Consider one compound from US10471048B2, “Thienopyridine derivative for the treatment of hepatitis C infections” (Cipla (UK) Limited, priority 2015, dated 2019).

Broadly, the CC50 is the concentration that lowers cell viability or growth by half. Broadly, the EC50 is the concentration needed to bring the measured effect to its halfway point. Low values mean a more potent agent, high ones a less potent agent.

The nature of series [1]: HCV replicon assay, cell viability (CytoTox-1). To be noted: human, Huh7 hepatoma cells containing a subgenomic HCV replicon.
Method: We use the subgenomic HCV replicons of genotype 1a (H77 strain), 1b (Con1 strain), and 2a (JFH-1 strain), which are Huh7 human hepatoma cell lines that contains an HCV replicon.
Briefly, the replicon cells are plated at 5,000 cells/well into 96-well plates that are dedicated for the analysis of cell numbers (cytotoxicity) or antiviral activity. On the following day, samples are diluted with assay media and added to the appropriate wells. Cells are processed 72 hours later when the cells are still sub-confluent. […] The concentration of drug that reduces cell viability is assessed by the fluorometric CytoTox-1 cell proliferation assay (Promega), (expressed as cell numbers). […] Where applicable EC50 (concentration inhibiting HCV replicon by 50%), EC90 (concentration inhibiting HCV replicon by 90%), CC50 (concentration decreasing cell viability by 50%), CC90 (concentration decreasing cell viability by 90%) and SI (selectivity indices: CC50/EC50 and CC90/EC90) values are derived.
A short description of series [2]: Infectious HCVcc assay, cell viability (CytoTox-1). To be noted: human, Huh7.5 cells infected with cell culture-derived HCV (HCVcc).
Method: (§1) Huh7.5 cells are grown in Dulbecco's modified essential media (DMEM), 10% fetal bovine serum (FBS), 1% penicillin-streptomycin (pen-strep), 1% Non-essential amino acids (NEAA) in a 5% CO2 incubator at 37° C. Huh7.5 cells are seeded at 1×10^4 cells per well into 96-well plates according to Southern Research Institute standard format. Test articles are serially diluted with DMEM plus 5% FBS. The diluted compound in the amount of 50 μl is mixed with equal volume of cell culture-derived HCV (HCVcc), then applied to appropriate wells in the plate. Human interferon alpha-2b (rIFNα-2b) and/or Sofosbuvir are included as a positive control. After 72 hr incubation at 37° C., the cells are lysed for measurement of luciferase activity using Renilla Luciferase Assay System (Promega) according to manufacturer's instruction. The number of cells in each well is determined by CytoTox-1 reagent (Promega).
In series [3] the test system is cell culture-derived HCV (HCVcc). Description: microbe, parasite or virus in culture. Format: cell-based, Hepatitis C virus.
Method: as §1
In another series the test system is HCV GT1b CON-1 replicon. Description: HCV replicon assay (antiviral activity). To be noted: In vitro HCV replicon assay. Type of series: cell-based, Hepatitis C virus. The source says:
The HCV replicon antiviral evaluation assay examines the effects of compound at six serial dilutions. Human interferon alpha-2b (rIFNα-2b) and Sofosbuvir are included in each run as a positive control compound.
In general terms: In antiviral work, replicon cells carry a viral genome segment that copies itself.

For `CC(=O)Oc1cc2c(s1)CCN(C(C(=O)C1CC1)c1ccccc1F)C2.Cl` (racemic) [Prasugrel, 5-[(1RS)-2-cyclopropyl-1-(2-fluorophenyl)-2-oxoethyl]-4,5,6,7-tetrahydrothieno[3,2-c]pyridin-2-yl acetate hydrochloride], the CC50 at 72 h in series [1] is 88.5 µM; in series [2] it was above 100 µM. Further, the concentration giving a half-maximal response (EC50) in series [3] (Hepatitis C virus, 72 h) came to 9.71 µM; in the series on HCV GT1b CON-1 replicon (Hepatitis C virus, GT1B, concentration inhibiting HCV replicon by 50%, 72 hours), 47.1 µM. Besides, the Selectivity index is given as above 10.3 in series [3] (In vitro HCVcc assay, CC50/EC50) and 1.88 with HCV GT1b CON-1 replicon (CC50/EC50).
